According to US6355799B1, “Substituted benzene compounds, process for their preparation, and herbicidal and defoliant compositions containing them” (ISK Americas Incorporated, priority 1997, dated 2002):

Key:
Assay type in all cases: in vivo
[1] = system: redroot pigweed (Amaranthus retroflexus, AMARE); assay: Pre-emerge test, greenhouse herbicide activity screening; details: pre-emerge, phytotoxicity rating 0-100 at 14 days after application
Summary of the method: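 Herbicidal damage is scored 0 (none) to 100 (complete plant death) two weeks after a simulated field spray. Rates span 15–1000 g ai/ha, delivered in acetone at 187 l/ha. For post-emergence treatments, plants have 2–3 leaves and the spray carries 0.25% v/v non-ionic surfactant.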

[2] = system: barnyardgrass (Echinochloa crus-galli, ECHCG); assay: as above; details: pre-emerge, phytotoxicity rating 0-100 at 14 days after application
Summary of the method: (§1)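 Compounds in acetone were track-sprayed at 187 l/ha, 15–1000 g ai/ha, onto sandy loam pots. Pre-emerge seeds were sown one day before spraying, with surface watering afterwards. Post-emerge plants were at the 2–3 leaf stage and sprayed with 0.25% v/v non-ionic surfactant. Injury was rated 0–100 at 14 days.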

[3] = system: green foxtail (Setaria viridis, SETVI); assay: as above; details: pre-emerge, phytotoxicity rating 0-100 at 14 days after application
Summary of the method: as §1

[4] = system: ivyleaf morningglory (Ipomoea hederacea, IPOHE); assay: as above; details: pre-emerge, phytotoxicity rating 0-100 at 14 days after application
Summary of the method: as §1

[5] = system: lambsquarters (Chenopodium album, CHEAL); assay: as above; details: pre-emerge, phytotoxicity rating 0-100 at 14 days after application
Summary of the method: as §1

[6] = system: large crabgrass (Digitaria sanguinalis, DIGSA); assay: as above; details: pre-emerge, phytotoxicity rating 0-100 at 14 days after application
Summary of the method: as §1

[7] = system: sicklepod (Cassia obtusifolia, CASOB); assay: as above; details: pre-emerge, phytotoxicity rating 0-100 at 14 days after application
Summary of the method: as §1

[8] = system: velvetleaf (Abutilon theophrasti, ABUTH); assay: as above; details: pre-emerge, phytotoxicity rating 0-100 at 14 days after application
Summary of the method: as §1

[9] = system: field corn (Zea mays L., var. Dekalb 535, CORN); assay: Pre-emerge test, crop safety; details: crop damage, pre-emerge, phytotoxicity rating 0-100 at 14 days after application
Summary of the method: (§2)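 Rating: 0–100 visual injury, 14 DAA. Application: acetone, 187 l/ha, 15–1000 g ai/ha, flat-fan track sprayer with nozzle 40–45 cm above soil or canopy. Post-emerge runs used 0.25% v/v surfactant on 2–3 leaf plants.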

[10] = system: upland rice (Oryza sp., var. Tebonnet, RICE); assay: Pre-emerge test, crop safety; details: crop damage, pre-emerge, phytotoxicity rating 0-100 at 14 days after application
Summary of the method: as §2

[11] = system: barnyardgrass (Echinochloa crus-galli, ECHCG); assay: Post-emerge test, greenhouse herbicide activity screening; details: post-emerge, phytotoxicity rating 0-100 at 14 days after application
Summary of the method: as §1

[12] = system: green foxtail (Setaria viridis, SETVI); assay: as above; details: post-emerge, phytotoxicity rating 0-100 at 14 days after application
Summary of the method: as §1

[13] = system: ivyleaf morningglory (Ipomoea hederacea, IPOHE); assay: as above; details: post-emerge, phytotoxicity rating 0-100 at 14 days after application
Summary of the method: as §1

[14] = system: johnsongrass (Sorghum halepense, SORHA); assay: as above; details: post-emerge, phytotoxicity rating 0-100 at 14 days after application
Summary of the method: as §1

[15] = system: lambsquarters (Chenopodium album, CHEAL); assay: as above; details: post-emerge, phytotoxicity rating 0-100 at 14 days after application
Summary of the method: as §1

[16] = system: large crabgrass (Digitaria sanguinalis, DIGSA); assay: as above; details: post-emerge, phytotoxicity rating 0-100 at 14 days after application
Summary of the method: as §1

[17] = system: redroot pigweed (Amaranthus retroflexus, AMARE); assay: as above; details: post-emerge, phytotoxicity rating 0-100 at 14 days after application
Summary of the method: as §1

[18] = system: sicklepod (Cassia obtusifolia, CASOB); assay: as above; details: post-emerge, phytotoxicity rating 0-100 at 14 days after application
Summary of the method: as §1

[19] = system: velvetleaf (Abutilon theophrasti, ABUTH); assay: as above; details: post-emerge, phytotoxicity rating 0-100 at 14 days after application
Summary of the method: as §1

[20] = system: field corn (Zea mays L., var. Dekalb 535, CORN); assay: Post-emerge test, crop safety; details: post-emerge, crop damage rating 0-100 at 14 days after application
Summary of the method: as §1

[21] = system: upland rice (Oryza sp., var. Tebonnet, RICE); assay: Post-emerge test, crop safety; details: post-emerge, crop damage rating 0-100 at 14 days after application
Summary of the method: as §1

Cc1c(Cl)cc(F)c(-n2c(=O)cc(C(F)(F)F)n(C)c2=O)c1NC(=O)SCc1ccccc1 [4-66]
50: Pre-emerge Herbicidal Activity CORN ([9]; rate 250 g ai/ha) | Post-emerge Herbicidal Activity SORHA ([14]; 250 g ai/ha) | Post-emerge Herbicidal Activity DIGSA ([16]; 250 g ai/ha)
65: Pre-emerge Herbicidal Activity RICE ([10]; rate 250 g ai/ha)
60: Pre-emerge Herbicidal Activity IPOHE ([4]; rate 63 g ai/ha) | Post-emerge Herbicidal Activity SETVI ([12]; 250 g ai/ha) | Post-emerge Herbicidal Activity CORN ([20]; 250 g ai/ha)
30: Pre-emerge Herbicidal Activity ECHCG ([2]; rate 63 g ai/ha) | Pre-emerge Herbicidal Activity CASOB ([7]; rate 63 g ai/ha) | Post-emerge Herbicidal Activity RICE ([21]; 63 g ai/ha)
90: Pre-emerge Herbicidal Activity ECHCG ([2]; rate 250 g ai/ha) | Pre-emerge Herbicidal Activity IPOHE ([4]; rate 250 g ai/ha) | Post-emerge Herbicidal Activity CASOB ([18]; 250 g ai/ha)
15: Post-emerge Herbicidal Activity CORN ([20]; 63 g ai/ha)
70: Pre-emerge Herbicidal Activity SETVI ([3]; rate 63 g ai/ha) | Pre-emerge Herbicidal Activity CASOB ([7]; rate 250 g ai/ha) | Post-emerge Herbicidal Activity RICE ([21]; 250 g ai/ha)
40: Post-emerge Herbicidal Activity ECHCG ([11]; 250 g ai/ha)
10: Post-emerge Herbicidal Activity SETVI ([12]; 63 g ai/ha) | Post-emerge Herbicidal Activity DIGSA ([16]; 63 g ai/ha)
100: Pre-emerge Herbicidal Activity AMARE ([1]; rate 63 g ai/ha) | Pre-emerge Herbicidal Activity AMARE ([1]; rate 250 g ai/ha) | Pre-emerge Herbicidal Activity SETVI ([3]; rate 250 g ai/ha) | Pre-emerge Herbicidal Activity CHEAL ([5]; rate 63 g ai/ha) | Pre-emerge Herbicidal Activity CHEAL ([5]; rate 250 g ai/ha) | Pre-emerge Herbicidal Activity DIGSA ([6]; rate 250 g ai/ha) | Pre-emerge Herbicidal Activity ABUTH ([8]; rate 63 g ai/ha) | Pre-emerge Herbicidal Activity ABUTH ([8]; rate 250 g ai/ha) | Post-emerge Herbicidal Activity IPOHE ([13]; 63 g ai/ha) | Post-emerge Herbicidal Activity IPOHE ([13]; 250 g ai/ha) | Post-emerge Herbicidal Activity CHEAL ([15]; 250 g ai/ha) | Post-emerge Herbicidal Activity AMARE ([17]; 250 g ai/ha) | Post-emerge Herbicidal Activity ABUTH ([19]; 63 g ai/ha) | Post-emerge Herbicidal Activity ABUTH ([19]; 250 g ai/ha)
0: Pre-emerge Herbicidal Activity CORN ([9]; rate 63 g ai/ha) | Post-emerge Herbicidal Activity ECHCG ([11]; 63 g ai/ha) | Post-emerge Herbicidal Activity SORHA ([14]; 63 g ai/ha)
20: Pre-emerge Herbicidal Activity RICE ([10]; rate 63 g ai/ha) | Post-emerge Herbicidal Activity CASOB ([18]; 63 g ai/ha)
80: Pre-emerge Herbicidal Activity DIGSA ([6]; rate 63 g ai/ha) | Post-emerge Herbicidal Activity CHEAL ([15]; 63 g ai/ha) | Post-emerge Herbicidal Activity AMARE ([17]; 63 g ai/ha)

Cc1nn(-c2c(Cl)cc(Cl)cc2NC(=O)c2ccc(F)cc2F)c(=O)n1C(F)F [Compound 6-13]
40: Pre-emerge Herbicidal Activity ECHCG ([2]; rate 250 g ai/ha) | Pre-emerge Herbicidal Activity CHEAL ([5]; rate 63 g ai/ha) | Pre-emerge Herbicidal Activity ABUTH ([8]; rate 250 g ai/ha)
30: Post-emerge Herbicidal Activity ECHCG ([11]; 250 g ai/ha) | Post-emerge Herbicidal Activity DIGSA ([16]; 250 g ai/ha) | Post-emerge Herbicidal Activity CASOB ([18]; 250 g ai/ha) | Post-emerge Herbicidal Activity RICE ([21]; 250 g ai/ha)
20: Post-emerge Herbicidal Activity DIGSA ([16]; 63 g ai/ha) | Post-emerge Herbicidal Activity CORN ([20]; 250 g ai/ha)
90: Pre-emerge Herbicidal Activity DIGSA ([6]; rate 250 g ai/ha) | Post-emerge Herbicidal Activity SETVI ([12]; 250 g ai/ha) | Post-emerge Herbicidal Activity CHEAL ([15]; 250 g ai/ha) | Post-emerge Herbicidal Activity AMARE ([17]; 250 g ai/ha) | Post-emerge Herbicidal Activity ABUTH ([19]; 250 g ai/ha)
85: Post-emerge Herbicidal Activity CHEAL ([15]; 63 g ai/ha)
0: Pre-emerge Herbicidal Activity IPOHE ([4]; rate 63 g ai/ha) | Pre-emerge Herbicidal Activity IPOHE ([4]; rate 250 g ai/ha) | Pre-emerge Herbicidal Activity CASOB ([7]; rate 63 g ai/ha) | Pre-emerge Herbicidal Activity CASOB ([7]; rate 250 g ai/ha) | Pre-emerge Herbicidal Activity CORN ([9]; rate 63 g ai/ha) | Pre-emerge Herbicidal Activity CORN ([9]; rate 250 g ai/ha) | Pre-emerge Herbicidal Activity RICE ([10]; rate 63 g ai/ha) | Post-emerge Herbicidal Activity ECHCG ([11]; 63 g ai/ha) | Post-emerge Herbicidal Activity SORHA ([14]; 63 g ai/ha) | Post-emerge Herbicidal Activity CASOB ([18]; 63 g ai/ha)
50: Post-emerge Herbicidal Activity SETVI ([12]; 63 g ai/ha) | Post-emerge Herbicidal Activity IPOHE ([13]; 63 g ai/ha)
100: Pre-emerge Herbicidal Activity AMARE ([1]; rate 250 g ai/ha) | Pre-emerge Herbicidal Activity SETVI ([3]; rate 250 g ai/ha) | Pre-emerge Herbicidal Activity CHEAL ([5]; rate 250 g ai/ha) | Post-emerge Herbicidal Activity ABUTH ([19]; 63 g ai/ha)
15: Post-emerge Herbicidal Activity CORN ([20]; 63 g ai/ha)
60: Pre-emerge Herbicidal Activity AMARE ([1]; rate 63 g ai/ha) | Post-emerge Herbicidal Activity IPOHE ([13]; 250 g ai/ha)
70: Post-emerge Herbicidal Activity AMARE ([17]; 63 g ai/ha)
80: Pre-emerge Herbicidal Activity SETVI ([3]; rate 63 g ai/ha) | Pre-emerge Herbicidal Activity DIGSA ([6]; rate 63 g ai/ha)
10: Pre-emerge Herbicidal Activity ECHCG ([2]; rate 63 g ai/ha) | Pre-emerge Herbicidal Activity ABUTH ([8]; rate 63 g ai/ha) | Pre-emerge Herbicidal Activity RICE ([10]; rate 250 g ai/ha) | Post-emerge Herbicidal Activity SORHA ([14]; 250 g ai/ha) | Post-emerge Herbicidal Activity RICE ([21]; 63 g ai/ha)
